Experimental data taken from publication PMC12406253, “Exploration of the Neuromodulatory Properties of Fyn and GSK-3β Kinases Exploiting 7‑Azaindole-Based Inhibitors” (Journal of Medicinal Chemistry, 2025).

What was measured:
[1] = target: T1, Abl(h) (Homo sapiens, UniProt P00519); assay: Eurofins KinaseProfiler radiometric kinase assay; type: biochemical; details: for Abl inhibition: 10 µM; for remaining activity at 10 µM: read-out: Abl(h) % Residual activity
T1 construct: purchased Eurofins KinaseProfiler (Eurofins Cerep)

[2] = target: T2, eEF-2K(h) (Homo sapiens, UniProt O00418); assay: Eurofins KinaseProfiler radiometric kinase assay; type: biochemical; details: read-out: eEF-2K(h) % Residual activity
T2 construct: purchased Eurofins KinaseProfiler (Eurofins Cerep)

[3] = target: T3, PKA(h) (Homo sapiens, UniProt P17612); assay: Eurofins KinaseProfiler radiometric kinase assay; type: biochemical; details: for remaining activity at 10 µM: read-out: PKA(h) % Residual activity
T3 construct: purchased Eurofins KinaseProfiler (Eurofins Cerep)

[4] = target: T4, Plk3(h) (Homo sapiens, UniProt Q9H4B4); assay: Eurofins KinaseProfiler radiometric kinase assay; type: biochemical; details: read-out: Plk3(h) % Residual activity
T4 construct: purchased Eurofins KinaseProfiler (Eurofins Cerep)

[5] = target: T5, Rsk1(h) (Homo sapiens, UniProt Q15418); assay: Eurofins KinaseProfiler radiometric kinase assay; type: biochemical; details: for remaining activity at 10 µM: read-out: Rsk1(h) % Residual activity
T5 construct: purchased Eurofins (Eurofins Cerep) KinaseProfiler

[6] = target: T6, CK2α2(h) (Homo sapiens, UniProt P19784); assay: Eurofins KinaseProfiler radiometric kinase assay; type: biochemical; details: read-out: CK2α2(h) % Residual activity
T6 construct: purchased Eurofins KinaseProfiler (Eurofins Cerep)

[7] = target: T7, PI3 Kinase (p110δ/p85α)(h) (Homo sapiens, UniProt O00329); assay: Eurofins KinaseProfiler radiometric kinase assay; type: biochemical; details: read-out: PI3 Kinase (p110δ/p85α)(h) % Residual activity
T7 construct: purchased Eurofins (Eurofins Cerep) KinaseProfiler

[8] = target: T8, EphB4(h) (Homo sapiens, UniProt P54760); assay: Eurofins KinaseProfiler radiometric kinase assay; type: biochemical; details: read-out: EphB4(h) % Residual activity
T8 construct: purchased Eurofins KinaseProfiler (Eurofins Cerep)

[9] = target: T9, EGFR(h) (Homo sapiens, UniProt P00533); assay: Eurofins KinaseProfiler radiometric kinase assay; type: biochemical; details: read-out: EGFR(h) % Residual activity
T9 construct: purchased Eurofins KinaseProfiler (Eurofins Cerep)

[10] = target: T10, CDK2/cyclinA(h) (Homo sapiens, UniProt P24941); assay: Eurofins KinaseProfiler radiometric kinase assay; type: biochemical; details: read-out: CDK2/cyclinA(h) % Residual activity
T10 construct: purchased Eurofins KinaseProfiler (Eurofins Cerep)

[11] = target: T11, SAPK2a(h) (Homo sapiens, UniProt Q16539); assay: Eurofins KinaseProfiler radiometric kinase assay; type: biochemical; details: read-out: SAPK2a(h) % Residual activity
T11 construct: purchased Eurofins (Eurofins Cerep) KinaseProfiler

[12] = target: T12, IGF-1R(h) (Homo sapiens, UniProt P08069); assay: Eurofins KinaseProfiler radiometric kinase assay; type: biochemical; details: read-out: IGF-1R(h) % Residual activity
T12 construct: purchased Eurofins KinaseProfiler (Eurofins Cerep)

[13] = target: T13, CaMKI(h) (Homo sapiens, UniProt Q14012); assay: Eurofins KinaseProfiler radiometric kinase assay; type: biochemical; details: read-out: CaMKI(h) % Residual activity
T13 construct: purchased Eurofins KinaseProfiler (Eurofins Cerep)

[14] = target: T14, Rse(h) (Homo sapiens, UniProt Q06418); assay: Eurofins KinaseProfiler radiometric kinase assay; type: biochemical; details: read-out: Rse(h) % Residual activity
T14 construct: purchased Eurofins (Eurofins Cerep) KinaseProfiler

[15] = target: T15, LOK(h) (Homo sapiens, UniProt O94804); assay: Eurofins KinaseProfiler radiometric kinase assay; type: biochemical; details: for LOK inhibition: 10 µM; for remaining activity at 10 µM: read-out: LOK(h) % Residual activity
T15 construct: purchased Eurofins KinaseProfiler (Eurofins Cerep)

[16] = system: primary rat cerebellar granule neurons (CGNs); assay: Neurotoxicity, cell viability in CGNs (MTT); type: cell-based; details: 5, 10, and 25 μM, 24 h
Experimental: A preliminary cell viability assessment was conducted in primary rat cerebellar granule neurons (CGNs), which are considered a reliable model for studying cellular and molecular mechanisms of survival/apoptosis and neurodegeneration/neuroprotection.
Primary cerebellar granule cells were dissociated from cerebella and plated on 96-well plates, previously coated with 10 μg/mL poly-L-lysine, at a density of 1.2 × 10^5 cells/0.2 mL medium/well in BME supplemented with 10% heat-inactivated FBS (Life Technologies), 2 mmol/L glutamine, 100 μmol/L gentamicin sulfate, and 25 mM KCl (all from Sigma-Aldrich). Sixteen hours later, 10 μM cytosine arabinofuranoside (Sigma-Aldrich) was added to avoid glial proliferation. After 7 days in vitro, differentiated neurons were shifted to serum-free BME medium and exposed to increasing concentrations (5 μM, 10 μM, 25 μM) of compounds of interest for 24 h. Then, cell viability was evaluated through the MTT assay.
For MTT assay, thiazolyl blue was added to the culture medium at a final concentration of 0.1 mg/mL. Following a 20 min incubation at 37 °C in the dark, the MTT precipitate was dissolved in 0.1 M Tris–HCl pH 7.5 buffer containing 5% Triton X-100 (all from Sigma-Aldrich) and absorbance was read at 570 nm in a microplate spectrophotometric reader (Bio-Rad).

[17] = target: T16, Fyn(h) (Homo sapiens, UniProt P06241); assay: Eurofins KinaseProfiler radiometric kinase assay; type: biochemical; details: for Fyn inhibition: 10 µM; for remaining activity at 10 µM: read-out: Fyn(h) % Residual activity
T16 construct: purchased Eurofins KinaseProfiler (Eurofins Cerep)

[18] = target: T17, CDK6/cyclinD3(h) (Homo sapiens, UniProt Q00534); assay: Eurofins KinaseProfiler radiometric kinase assay; type: biochemical; details: read-out: CDK6/cyclinD3(h) % Residual activity
T17 construct: purchased Eurofins KinaseProfiler (Eurofins Cerep)

[19] = target: FYNα (Homo sapiens, UniProt P06241); assay: FYNα kinase assay, LANCE Ultra TR-FRET; type: biochemical; details: mean ± SD of at least three independent determinations; ATP near Km; read-out: Fyn IC50
[20] = target: T18, TAK1(h) (Homo sapiens, UniProt O43318); assay: Eurofins KinaseProfiler radiometric kinase assay; type: biochemical; details: read-out: TAK1(h) % Residual activity
T18 construct: purchased Eurofins (Eurofins Cerep) KinaseProfiler
T18 sequence (O43318 1-303 limits assumed): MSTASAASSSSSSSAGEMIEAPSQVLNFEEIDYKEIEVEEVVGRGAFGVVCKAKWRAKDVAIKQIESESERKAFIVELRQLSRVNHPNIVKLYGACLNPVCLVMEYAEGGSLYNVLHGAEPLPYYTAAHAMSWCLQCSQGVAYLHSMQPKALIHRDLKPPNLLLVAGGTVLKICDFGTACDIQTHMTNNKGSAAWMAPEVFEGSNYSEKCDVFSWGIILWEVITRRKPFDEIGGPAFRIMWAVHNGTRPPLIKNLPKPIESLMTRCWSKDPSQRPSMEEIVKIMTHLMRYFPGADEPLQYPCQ

T5 sequence (Q15418 whole entry): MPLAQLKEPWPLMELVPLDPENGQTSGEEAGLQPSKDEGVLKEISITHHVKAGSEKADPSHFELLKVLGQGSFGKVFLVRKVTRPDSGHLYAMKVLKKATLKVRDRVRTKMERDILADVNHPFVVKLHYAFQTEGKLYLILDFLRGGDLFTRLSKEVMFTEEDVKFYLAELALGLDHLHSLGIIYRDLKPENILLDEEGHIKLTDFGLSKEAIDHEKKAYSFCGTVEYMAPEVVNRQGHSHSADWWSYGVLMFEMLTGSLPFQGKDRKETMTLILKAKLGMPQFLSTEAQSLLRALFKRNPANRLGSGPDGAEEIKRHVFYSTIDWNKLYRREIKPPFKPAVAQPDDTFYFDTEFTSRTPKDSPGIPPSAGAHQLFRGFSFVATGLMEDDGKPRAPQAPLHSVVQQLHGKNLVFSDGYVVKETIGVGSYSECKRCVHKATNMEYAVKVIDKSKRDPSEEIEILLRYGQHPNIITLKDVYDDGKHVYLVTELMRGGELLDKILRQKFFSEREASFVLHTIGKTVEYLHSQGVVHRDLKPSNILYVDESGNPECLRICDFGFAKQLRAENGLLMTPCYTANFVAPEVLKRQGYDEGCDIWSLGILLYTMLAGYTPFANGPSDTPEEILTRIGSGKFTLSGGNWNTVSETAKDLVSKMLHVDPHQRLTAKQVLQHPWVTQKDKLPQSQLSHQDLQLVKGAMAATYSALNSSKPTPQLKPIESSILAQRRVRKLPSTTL
T16 sequence (P06241 whole entry): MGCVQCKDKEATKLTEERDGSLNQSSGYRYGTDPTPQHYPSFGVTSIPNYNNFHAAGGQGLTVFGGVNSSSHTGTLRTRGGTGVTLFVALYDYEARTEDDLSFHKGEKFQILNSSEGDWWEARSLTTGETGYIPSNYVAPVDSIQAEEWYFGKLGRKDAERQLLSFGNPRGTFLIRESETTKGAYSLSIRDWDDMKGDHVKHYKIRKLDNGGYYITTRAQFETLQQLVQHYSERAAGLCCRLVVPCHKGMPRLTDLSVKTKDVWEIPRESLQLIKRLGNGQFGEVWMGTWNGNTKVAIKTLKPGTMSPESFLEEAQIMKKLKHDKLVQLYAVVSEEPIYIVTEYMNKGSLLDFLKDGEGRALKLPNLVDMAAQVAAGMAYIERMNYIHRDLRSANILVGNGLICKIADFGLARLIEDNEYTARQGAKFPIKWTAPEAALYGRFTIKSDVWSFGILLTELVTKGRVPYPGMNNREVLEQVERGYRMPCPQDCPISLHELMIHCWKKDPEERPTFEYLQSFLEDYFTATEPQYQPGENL
T15 sequence (O94804 whole entry): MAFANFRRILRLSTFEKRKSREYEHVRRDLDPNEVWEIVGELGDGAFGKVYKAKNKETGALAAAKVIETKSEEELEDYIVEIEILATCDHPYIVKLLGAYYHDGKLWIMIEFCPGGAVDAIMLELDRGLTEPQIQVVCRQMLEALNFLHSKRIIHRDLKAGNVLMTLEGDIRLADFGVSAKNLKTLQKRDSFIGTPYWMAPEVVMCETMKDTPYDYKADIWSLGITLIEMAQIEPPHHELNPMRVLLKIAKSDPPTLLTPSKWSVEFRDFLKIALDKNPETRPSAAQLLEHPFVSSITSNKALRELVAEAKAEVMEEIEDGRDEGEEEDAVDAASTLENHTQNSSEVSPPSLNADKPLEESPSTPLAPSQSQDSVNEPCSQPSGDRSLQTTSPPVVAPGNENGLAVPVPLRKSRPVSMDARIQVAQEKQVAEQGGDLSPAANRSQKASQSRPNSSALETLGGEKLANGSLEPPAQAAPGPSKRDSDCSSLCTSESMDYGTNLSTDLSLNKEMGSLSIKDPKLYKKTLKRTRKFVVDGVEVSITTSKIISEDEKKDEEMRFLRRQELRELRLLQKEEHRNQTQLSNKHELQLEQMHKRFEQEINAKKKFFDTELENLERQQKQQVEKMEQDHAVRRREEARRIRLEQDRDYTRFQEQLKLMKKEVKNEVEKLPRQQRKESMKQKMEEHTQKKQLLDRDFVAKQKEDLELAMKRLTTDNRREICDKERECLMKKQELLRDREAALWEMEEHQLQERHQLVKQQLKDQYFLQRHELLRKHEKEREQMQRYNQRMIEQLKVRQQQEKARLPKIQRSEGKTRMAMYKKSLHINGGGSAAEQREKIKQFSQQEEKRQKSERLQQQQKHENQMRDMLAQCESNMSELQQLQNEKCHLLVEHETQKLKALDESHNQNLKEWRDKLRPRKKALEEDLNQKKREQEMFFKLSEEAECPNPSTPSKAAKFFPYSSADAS
T1 sequence (P00519 whole entry): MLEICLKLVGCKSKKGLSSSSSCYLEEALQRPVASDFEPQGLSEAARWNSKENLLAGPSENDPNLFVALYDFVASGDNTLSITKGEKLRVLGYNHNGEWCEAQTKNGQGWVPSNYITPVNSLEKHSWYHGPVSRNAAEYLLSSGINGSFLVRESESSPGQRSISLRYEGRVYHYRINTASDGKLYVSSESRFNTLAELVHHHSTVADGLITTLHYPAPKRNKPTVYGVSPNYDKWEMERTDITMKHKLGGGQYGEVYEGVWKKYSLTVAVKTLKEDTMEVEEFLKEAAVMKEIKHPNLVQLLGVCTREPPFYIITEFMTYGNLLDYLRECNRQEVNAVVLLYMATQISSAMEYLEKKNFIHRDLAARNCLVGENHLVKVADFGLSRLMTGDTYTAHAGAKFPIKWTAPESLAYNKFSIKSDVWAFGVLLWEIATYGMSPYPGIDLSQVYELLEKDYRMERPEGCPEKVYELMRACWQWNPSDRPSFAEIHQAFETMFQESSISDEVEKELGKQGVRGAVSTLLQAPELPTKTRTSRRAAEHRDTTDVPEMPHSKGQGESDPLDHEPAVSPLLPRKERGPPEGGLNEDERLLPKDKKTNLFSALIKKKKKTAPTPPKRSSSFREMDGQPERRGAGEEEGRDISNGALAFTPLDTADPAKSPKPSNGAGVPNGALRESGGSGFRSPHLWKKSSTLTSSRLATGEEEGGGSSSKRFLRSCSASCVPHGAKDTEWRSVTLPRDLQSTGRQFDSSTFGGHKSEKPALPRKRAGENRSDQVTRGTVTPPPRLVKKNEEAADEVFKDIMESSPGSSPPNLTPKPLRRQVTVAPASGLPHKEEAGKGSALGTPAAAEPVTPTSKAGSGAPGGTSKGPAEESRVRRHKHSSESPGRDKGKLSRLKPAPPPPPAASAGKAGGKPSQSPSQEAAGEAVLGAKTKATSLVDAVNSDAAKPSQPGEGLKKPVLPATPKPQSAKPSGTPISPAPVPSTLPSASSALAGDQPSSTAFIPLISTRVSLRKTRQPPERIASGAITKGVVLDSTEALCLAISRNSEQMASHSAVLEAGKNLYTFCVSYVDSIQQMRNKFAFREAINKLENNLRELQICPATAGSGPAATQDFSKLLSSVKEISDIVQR
Chain of FYNα (P06241 whole entry): as the sequence (P06241 whole entry) above
T11 sequence (Q16539 whole entry): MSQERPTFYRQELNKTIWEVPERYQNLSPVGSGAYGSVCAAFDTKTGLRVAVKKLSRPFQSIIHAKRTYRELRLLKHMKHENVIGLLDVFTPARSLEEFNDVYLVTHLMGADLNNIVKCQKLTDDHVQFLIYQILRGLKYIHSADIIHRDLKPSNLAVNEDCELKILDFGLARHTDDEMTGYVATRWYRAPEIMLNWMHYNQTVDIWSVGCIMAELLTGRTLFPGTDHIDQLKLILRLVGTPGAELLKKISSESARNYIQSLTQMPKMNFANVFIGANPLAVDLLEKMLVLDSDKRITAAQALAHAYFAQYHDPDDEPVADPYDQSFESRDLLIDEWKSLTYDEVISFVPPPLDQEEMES
T6 sequence (P19784 whole entry): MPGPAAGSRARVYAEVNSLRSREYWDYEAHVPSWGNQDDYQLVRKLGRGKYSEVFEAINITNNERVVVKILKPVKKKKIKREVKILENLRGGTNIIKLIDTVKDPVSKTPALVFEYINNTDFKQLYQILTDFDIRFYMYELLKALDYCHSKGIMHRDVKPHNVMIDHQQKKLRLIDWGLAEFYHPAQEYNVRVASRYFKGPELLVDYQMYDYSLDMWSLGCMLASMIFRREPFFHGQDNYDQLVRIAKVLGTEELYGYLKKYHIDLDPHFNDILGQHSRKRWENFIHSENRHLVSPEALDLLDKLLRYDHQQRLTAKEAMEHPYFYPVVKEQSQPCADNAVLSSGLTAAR

Row | Abl inhibition [1] | remaining activity at 10 µM [1] [%] | remaining activity at 10 µM [2] [%] | remaining activity at 10 µM [3] [%] | remaining activity at 10 µM [4] [%] | remaining activity at 10 µM [5] [%] | remaining activity at 10 µM [6] [%] | remaining activity at 10 µM [7] [%] | remaining activity at 10 µM [8] [%] | remaining activity at 10 µM [9] [%] | remaining activity at 10 µM [10] [%] | remaining activity at 10 µM [11] [%] | remaining activity at 10 µM [12] [%] | remaining activity at 10 µM [13] [%] | remaining activity at 10 µM [14] [%] | LOK inhibition [15] | remaining activity at 10 µM [15] [%] | Fyn inhibition [17] | Compound | Increase in registered cell viability in comparison to control [16] | Neurotoxicity on CGNs (cell viability compared to control) [16] | further results
1 | completely inhibited | 8 | 121 | 111 | 89 | 44 | 83 | 66 | 109 | 50 | 27 | 101 | 83 | 89 | 34 | completely inhibited | 4 | completely inhibited | Br.Cc1sc(NCc2ccccc2)nc1-c1c[nH]c2ncc(Br)cc12 [Compound 41, N-Benzyl-4-(5-bromo-1H-pyrrolo[2,3-b]pyridin-3-yl)-5-methylthiazol-2-amine Hydrobromide] | amplified | not neurotoxic | remaining activity at 10 µM [17]: -2%; remaining activity at 10 µM [18]: 86%; IC50 [19]: 50 ± 10 nM; remaining activity at 10 µM [20]: 49%
2 | completely inhibited | 6 | 108 | 8 | 96 | 3 | 100 | 97 | 108 | 86 | 16 | 103 | 68 | 80 | 98 | completely inhibited | 4 | completely inhibited | Br.Cc1sc(NCc2ccnc(Cl)c2)nc1-c1c[nH]c2ncccc12 [Compound 43, N-((2-Chloropyridin-4-yl)methyl)-5-methyl-4-(1H-pyrrolo[2,3-b]pyridin-3-yl)thiazol-2-amine Hydrobromide] | amplified | not neurotoxic | inhibition at 10 µM [3]: > 90%; inhibition at 10 µM [5]: > 90%; remaining activity at 10 µM [17]: 0%; remaining activity at 10 µM [18]: 90%; IC50 [19]: 44 ± 3 nM; remaining activity at 10 µM [20]: 30%
